#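 Compound exposure: 48 hours, 5 concentrations, 96-well plates. GI50 is the concentration that inhibits growth by half. TGI: total growth inhibition.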
# Tests used:
# Assay in all cases: growth of human tumour cells (NCI), 48 h
# [1] = tested on: T-47D breast
# [2] = tested on: RXF 393 renal
# [3] = tested on: COLO 205 colon
# [4] = tested on: NCI-H23 lung
# [5] = tested on: RPMI-8226 leukemia
# [6] = tested on: MDA-MB-435
# [7] = tested on: M14 melanoma
# [8] = tested on: SF-268 CNS
# [9] = tested on: HL-60(TB) leukemia
# [10] = tested on: MALME-3M melanoma
# [11] = tested on: MCF7 breast
# [12] = tested on: SNB-75 CNS
# [13] = tested on: SK-MEL-2 melanoma
# [14] = tested on: SF-539 CNS
# [15] = tested on: HOP-92 NSCLC
# [16] = tested on: CCRF-CEM leukemia
# [17] = tested on: UACC-62 melanoma
# [18] = tested on: A549 NSCLC
# [19] = tested on: SK-MEL-28 melanoma
# [20] = tested on: TK-10 renal
# [21] = tested on: SN12C renal
# [22] = tested on: SW-620 colon
# [23] = tested on: ACHN renal
# [24] = tested on: SNB-19 CNS
# [25] = tested on: MDA-N
# [26] = tested on: HCC-2998 colon
# [27] = tested on: OVCAR-4 ovarian
# [28] = tested on: NCI-H226 lung
# [29] = tested on: KM12 colon
# [30] = tested on: K-562 leukemia
# [31] = tested on: OVCAR-5 ovarian
# [32] = tested on: SR leukemia
# [33] = tested on: HCT-15 colon
# [34] = tested on: DU-145 prostate
# [35] = tested on: NCI/ADR-RES ovarian
# [36] = tested on: PC-3 prostate
# [37] = tested on: EKVX NSCLC
# [38] = tested on: SF-295 CNS
# [39] = tested on: IGROV1 ovarian
# [40] = tested on: HCT-116 colon
# [41] = tested on: CAKI-1 renal
# [42] = tested on: HOP-62 NSCLC
# [43] = tested on: UACC-257 melanoma
# [44] = tested on: HT29 colon
# [45] = tested on: UO-31 renal
# [46] = tested on: SK-MEL-5 melanoma
# [47] = tested on: HS 578T breast
# [48] = tested on: OVCAR-3 ovarian
# [49] = tested on: SK-OV-3 ovarian
# [50] = tested on: MDA-MB-231 breast
# [51] = tested on: 786-0 renal
# [52] = tested on: OVCAR-8 ovarian
# [53] = tested on: NCI-H460 lung
# [54] = tested on: LOX IMVI melanoma
# [55] = tested on: NCI-H522 lung
# [56] = tested on: BT-549 breast
# [57] = tested on: MOLT-4 leukemia
# [58] = tested on: U251 CNS
# [59] = tested on: A498 renal
structure (smiles),measurement,setting,value
CC1(C)N=C(/C(Cl)=[N+](/[O-])C(=O)c2ccc(F)cc2)C(C)(C)N1O,TGI,[1],58.5 µM
same,TGI,[2],28.8 µM
same,TGI,[3],38.2 µM
same,TGI,[4],42.8 µM
same,TGI,[5],38.1 µM
same,TGI,[6],49.3 µM
same,TGI,[7],30.3 µM
same,TGI,[8],33.6 µM
same,TGI,[9],27.3 µM
same,TGI,[10],30.8 µM
same,TGI,[11],44 µM
same,TGI,[12],32.7 µM
same,TGI,[13],40.3 µM
same,TGI,[14],40.1 µM
same,TGI,[15],40 µM
same,TGI,[16],12.8 µM
same,TGI,[17],33 µM
same,TGI,[18],> 100 µM
same,TGI,[19],32.4 µM
same,TGI,[20],29.7 µM
same,TGI,[21],29.2 µM
same,TGI,[22],39.2 µM
same,TGI,[23],36.5 µM
same,TGI,[24],> 100 µM
same,TGI,[25],29.9 µM
same,TGI,[26],35.4 µM
same,TGI,[27],32.2 µM
same,TGI,[28],42.2 µM
same,TGI,[29],67.8 µM
same,TGI,[30],17.3 µM
same,TGI,[31],36.1 µM
same,TGI,[32],27.8 µM
same,TGI,[33],26.9 µM
same,TGI,[34],78.7 µM
same,TGI,[35],> 100 µM
same,TGI,[36],31.3 µM
same,TGI,[37],40.6 µM
same,TGI,[38],78.4 µM
same,TGI,[39],37 µM
same,TGI,[40],30.6 µM
same,TGI,[41],34.5 µM
same,TGI,[42],40 µM
same,TGI,[43],32.3 µM
same,TGI,[44],41 µM
same,TGI,[45],37.9 µM
same,TGI,[46],30.4 µM
same,TGI,[47],57.1 µM
same,TGI,[48],31.2 µM
same,TGI,[49],47 µM
same,TGI,[50],33.6 µM
same,TGI,[51],27.7 µM
same,TGI,[52],33.9 µM
same,TGI,[53],> 100 µM
same,TGI,[54],24.3 µM
CCC(CO)Nc1nc2ccc(Cl)cc2c2ccccc12 (stereo not given),GI50,[1],6.13 µM
same,TGI,[1],20.9 µM
same,GI50,[55],8.42 µM
same,TGI,[55],21.5 µM
same,GI50,[2],2.3 µM
same,TGI,[2],5.93 µM
same,GI50,[3],11.9 µM
same,TGI,[3],25.6 µM
same,GI50,[4],12.3 µM
same,TGI,[4],25.9 µM
same,GI50,[5],4.04 µM
same,TGI,[5],26.4 µM
same,GI50,[6],6.14 µM
same,TGI,[6],18.8 µM
same,GI50,[7],12.8 µM
same,TGI,[7],25.6 µM
same,GI50,[8],10.7 µM
same,TGI,[8],23.4 µM
same,GI50,[9],7.62 µM
same,TGI,[9],63.3 µM
same,GI50,[10],15.7 µM
same,TGI,[10],29.3 µM
same,GI50,[11],12.2 µM
same,TGI,[11],26.1 µM
same,GI50,[12],4.38 µM
same,TGI,[12],18 µM
same,GI50,[13],14.5 µM
same,TGI,[13],28.4 µM
same,GI50,[14],10.4 µM
same,TGI,[14],22.2 µM
same,GI50,[15],3.06 µM
same,TGI,[15],14.8 µM
same,GI50,[16],4.24 µM
same,TGI,[16],17.4 µM
same,GI50,[17],4.71 µM
same,TGI,[17],17 µM
same,GI50,[18],6.05 µM
same,TGI,[18],20.4 µM
same,GI50,[19],14.3 µM
same,TGI,[19],27.3 µM
same,GI50,[20],3.91 µM
same,TGI,[20],18 µM
same,GI50,[21],11.5 µM
same,TGI,[21],25.3 µM
same,GI50,[22],13.5 µM
same,TGI,[22],26.9 µM
same,GI50,[23],9.05 µM
same,TGI,[23],21.1 µM
same,GI50,[24],8.53 µM
same,TGI,[24],21.3 µM
same,GI50,[26],2.82 µM
same,TGI,[26],10.6 µM
same,GI50,[27],11.9 µM
same,TGI,[27],25.5 µM
same,GI50,[56],10.1 µM
same,TGI,[56],21.7 µM
same,GI50,[28],11.4 µM
same,TGI,[28],31.7 µM
same,GI50,[29],5.3 µM
same,TGI,[29],17.1 µM
same,GI50,[30],3.01 µM
same,TGI,[30],11.5 µM
same,GI50,[31],5.4 µM
same,TGI,[31],19.7 µM
same,GI50,[32],1.57 µM
same,TGI,[32],13.5 µM
same,GI50,[33],3.7 µM
same,TGI,[33],15.4 µM
same,GI50,[34],12.8 µM
same,TGI,[34],25.4 µM
same,GI50,[35],5.95 µM
same,TGI,[35],21.4 µM
same,GI50,[36],10.3 µM
same,TGI,[36],24.9 µM
same,GI50,[37],6.23 µM
same,TGI,[37],20.2 µM
same,GI50,[38],2.81 µM
same,TGI,[38],15.3 µM
same,GI50,[39],11.2 µM
same,TGI,[39],23.5 µM
same,GI50,[40],10.8 µM
same,TGI,[40],22.7 µM
same,GI50,[41],2.82 µM
same,TGI,[41],14.6 µM
same,GI50,[57],3.55 µM
same,TGI,[57],15.2 µM
same,GI50,[58],5.18 µM
same,TGI,[58],18.3 µM
same,GI50,[42],7.95 µM
same,TGI,[42],21 µM
same,GI50,[43],15.3 µM
same,TGI,[43],28.6 µM
same,GI50,[44],4.58 µM
same,TGI,[44],15.6 µM
same,GI50,[59],4.6 µM
same,TGI,[59],16 µM
same,GI50,[45],4.01 µM
same,TGI,[45],16.3 µM
same,GI50,[46],11.2 µM
same,TGI,[46],23.3 µM
same,GI50,[47],8.82 µM
same,TGI,[47],34.9 µM
same,GI50,[48],12.2 µM
same,TGI,[48],24.7 µM
same,GI50,[49],11.8 µM
same,TGI,[49],24.1 µM
same,GI50,[50],4.9 µM
same,TGI,[50],15.9 µM
same,GI50,[51],7.37 µM
same,TGI,[51],20.1 µM
same,GI50,[52],11.4 µM
same,TGI,[52],29.3 µM
same,GI50,[53],3.93 µM
same,TGI,[53],14.8 µM
same,GI50,[54],6.17 µM
same,TGI,[54],19.4 µM
